These results are taken from US20250099431A1, “GLP-1R MODULATING COMPOUNDS” (priority 2020, published 2025).

One series addresses GLP-1R (Homo sapiens (Human), UniProt P43220). Kind of series: GLP-1R activation: cAMP increase in CHO cells stably expressing GLP-1R. In kind it is cell-based. As to conditions: cAMP increase, 10 point dose response, 30 minutes incubation at 37° C., read-out: EC50. As to the method:
GLP-1R activation by a compound of the present disclosure was quantified by measuring cAMP increase in CHO cells stably expressing GLP-1R (MultiSpan product #C1267-1a). […] The cells were then incubated overnight at 37° C., 5% CO2. […] 1% BSA (Rockland Immunochemicals product #BSA-1000)). Following the medium change, the cells were incubated for 1 hour at 37° C., 5% CO2. The tested GLP-1 compound was added to the cells in a 10 point dose response followed by a 30 minutes incubation at 37° C., 5% CO2. cAMP concentration increase was then detected using Cisbio's cAMP Gs Dynamic Kit (product #62AM4PEC) according to the manufacturer's protocol. The response was plotted against the log of the agonist concentration and fitted to a sigmoidal equation to determine the EC50.

A short description of series [1]: Microsomal stability (liver microsomal assay, mixed cofactors); predicted hepatic clearance. In kind it is in vitro ADME. Particulars: liver microsomes 1.0 mg protein/mL (+UDPGA +NADPH), 1 μM analyte, 37° C.; scaled with human liver weight and hepatic blood flow 1.3 L/hr/kg. Here is the method: Metabolic stability of compounds was assessed using human or rat liver microsomal assays (Corning). In these assays, 10 nL of each analyte at a concentration of 1 mM in 100% DMSO was dispensed into a well of a polypropylene plates using the Echo 550 acoustic liquid dispenser (Labcyte®). Each plate contained 384 wells with a single analyte in each well.
A solution of human (Corning® Gentest™ Human Mixed Pooled Microsomes or rat (Corning® Gentest™ Rat [Sprague-Dawley] Pooled Liver Microsomes) liver microsomes at 2 mg/ml in 100 mM K2HPO4/KH2PO4 at pH 7. 4 was combined with alamethicin from Trichoderma viride (Sigma-Aldrich) 0.0225 mg/ml. The mixture was incubated on ice for 15 minutes. 5 μL of this mixture was added to individual wells following a 15 minute incubation at room temperature and supplemented with 5 μL NADPH Regenerating Solution of cofactors (Corning® Gentest™ UGT Reaction Mix) containing 100 mM K2HPO4/KH2PO4 at pH 7.4, 2.6 mM NADP+, 6.6 mM glucose-6-phosphate, 6.6 mM MgCl2, 0.8 U/mL glucose-6-phosphate dehydrogenase, 0.1 mM sodium citrate, and 6.8 mM uridine diphosphate-glucuronic acid. The final concentration of each analyte compound at the beginning of the reaction was 1 μM. The reactions were incubated at 37° C. and samples were collected at time points of 0, 5, 15, 30, 40, 50, 60, and 70 minutes for further analysis. Background data were collected using reactions without analyte compounds.
Upon collection of the sample time points, samples were quenched with 30 μL of a solution of 72% acetonitrile, 8% methanol, 0.1% formic acid, 19.9% water, and internal standard (IS). Reaction plates were spun in a centrifuge at speed of 4,000 rcf for 30 minutes at 4° C., following a dilution of the 10 μL quenched reaction into 40 μL de-ionized water, yielding assay plates.
Assay plates were analyzed using solid-state extraction coupled with quadrupole time-of-flight mass spectrometer, using Agilent QToF 6530 RapidFire 360 system, with C4 type A solid state cartridges. Analysis was performed in either positive or negative ionization modes. Mobile phases contained 0.1% formic acid in water for loading analytes onto solid state extraction cartridges and 0.1% formic acid in acetonitrile for elution into a mass spectrometer in positive ionization mode, or 0.1% acetic acid in water for loading and 0.1% acetic acid in acetonitrile for extraction in negative ionization mode. Peak-area ratios of integrated counts for individual compounds to IS were plotted as semi-logarithmic chart of log vs time. The initial linear portion of decay was fitted to a linear regression equation to derive the half-time of analyte decay.
Pharmacological parameters for an analyte compound metabolism were calculated using the following equations: […]
wherein concentration refers to the protein concentration (mg/ml) in the reaction.
This scales the in vitro intrinsic clearance up to the value that would be predicted for the entire mass of liver tissue (but with no restriction by blood flow). The value depends upon the size of the liver (species-dependent) and the yield of microsomal protein as appropriate (assumed to be species-independent).
Hepatic clearance will depend upon the inter-relationship of intrinsic clearance and hepatic blood flow and was predicted from in vitro data using a variety of approaches.
The hepatic extraction is reported as the predicted clearance expressed as a proportion of hepatic blood flow.

Where only a bound is given, the exact number is not on record here.

Chain of GLP-1R (P43220 24-463): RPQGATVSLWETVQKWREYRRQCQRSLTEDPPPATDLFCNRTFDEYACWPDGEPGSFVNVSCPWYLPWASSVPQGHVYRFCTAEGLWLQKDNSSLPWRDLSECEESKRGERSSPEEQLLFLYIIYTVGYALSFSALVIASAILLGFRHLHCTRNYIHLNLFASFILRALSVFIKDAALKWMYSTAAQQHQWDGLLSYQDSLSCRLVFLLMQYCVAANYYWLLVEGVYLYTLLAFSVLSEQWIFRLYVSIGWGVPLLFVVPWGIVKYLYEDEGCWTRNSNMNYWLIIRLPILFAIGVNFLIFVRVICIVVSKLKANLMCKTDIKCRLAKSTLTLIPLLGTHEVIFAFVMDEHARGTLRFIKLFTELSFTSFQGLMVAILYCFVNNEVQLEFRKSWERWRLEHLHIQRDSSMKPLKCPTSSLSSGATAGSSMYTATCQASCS

`COCCn1c(Cc2c(F)cc(-c3cccc4c3OC(c3ccc(C#N)cc3F)O4)cc2F)nc2ccc(C(=O)O)cc21` (single isomer, unassigned) [Example 37, 2-(4-(2-(4-cyano-2-fluorophenyl)benzo [d][1,3]dioxol-4-yl)-2,6-difluorobenzyl)-1-(2-methoxyethyl)-1H-benzo[d]imidazole-6-carboxylic acid]: the EC50 at GLP-1R came out at 1000 nM. Moreover, the “Predicted Hepatic Clearance (Pred. Cl.)” value in series [1] was 3.83 mL/min/kg.
On the same counts, the results for `CC1(c2ccc(C#N)cc2F)Oc2cccc(-c3cc(F)c(Cc4nc5ccc(C(=O)O)cc5n4C[C@@H]4CCO4)c(F)c3)c2O1` (single isomer, unassigned) [Example 93] are 0.52 nM and 6 mL/min/kg.
Turning to `CC1(c2ccc(Cl)cc2F)Oc2cccc(-c3cc(F)c(Cc4nc5ccc(C(=O)O)c(F)c5n4C[C@@H]4CCO4)c(F)c3)c2O1` (stereo partly drawn) [Example 2, 2-(4-(2-(4-chloro-2-fluorophenyl)-2-methylbenzo[d][1, 3]dioxol-4-yl)-2,6-difluorobenzyl)-7-fluoro-1-(((S)-oxetan-2-yl)methyl)-1H-benzo[d]imidazole-6-carboxylic acid], the EC50 on GLP-1R is 0.17 nM. In addition, in series [1], the “Predicted Hepatic Clearance (Pred. Cl.)” value was <1.83 mL/min/kg.
On the same counts, the results for `COCCn1c(Cc2ccc(-c3cccc4c3OC(C)(c3ccc(Cl)cc3F)O4)[nH]c2=O)nc2ccc(C(=O)O)cc21` (centres unmarked) [Example 86, 2-((6-(2-(4-chloro-2-fluorophenyl)-2-methylbenzo[d][1, 3]dioxol-4-yl)-2-oxo-1,2-dihydropyridin-3-yl)methyl)-1-(2-methoxyethyl)-1H-benzo[d]imidazole-6-carboxylic acid] are 13 nM and 2 mL/min/kg.
In the case of `CC1(c2ccc(Cl)cn2)Oc2cccc(-c3ccn(Cc4nc5ccc(C(=O)O)cc5n4C[C@@H]4CCO4)c(=O)c3)c2O1` (stereo partly drawn) [Example 26, 2-((4-(2-(5-chloropyridin-2-yl)-2-methylbenzo[d][1, 3]dioxol-4-yl)-2-oxopyridin-1(2H)-yl)methyl)-1-(((S)-oxetan-2-yl)methyl)-1H-benzo[d]imidazole-6-carboxylic acid], the EC50 at GLP-1R amounted to 37 nM. Moreover, in series [1], the “Predicted Hepatic Clearance (Pred. Cl.)” value is <1.83 mL/min/kg.
Regarding “2-[[4-[2-(5- Chloro-2-pyridyl)- 2-methyl-1,3- benzodioxol-4- yl]triazol-1- yl]methyl]-3-(2- methoxyethyl) bencarboxylic acid [Example 104]”, the EC50 on GLP-1R was 3030 nM. Also, the “Predicted Hepatic Clearance (Pred. Cl.)” value in series [1] is 13 mL/min/kg.
The like results for `COCCn1c(Cc2c(F)cc(-c3cccc4c3OC3(c5ccc(Cl)cc5)CCCN43)cc2F)nc2ccc(C(=O)O)cc21` (centres unmarked) [Example 16, 2-(4-(3a-(4-chlorophenyl)-1,2,3,3a-tetrahydrobenzo[d]pyrrolo[2,1-b]oxazol-5-yl)-2,6-difluorobenzyl)-1-(2-methoxyethyl)-1H-benzo[d]imidazole-6-carboxylic acid] were, in that order, 6920 nM and 9 mL/min/kg.
For `COCCn1c(Cc2ccc(-c3cccc4c3OC(c3ccc(C#N)cc3)O4)cc2F)nc2ccc(C(=O)O)cc21` (centres unmarked) [Example 6, 2-(4-(2-(4-cyanophenyl)benzo[d][1, 3]dioxol-4-yl)-2-fluorobenzyl)-1-(2-methoxyethyl)-1H-benzo[d]imidazole-6-carboxylic acid], the EC50 on GLP-1R was found to be 219 nM. In series [1], the “Predicted Hepatic Clearance (Pred. Cl.)” value is 4.83 mL/min/kg.
On the same counts, the results for `COCCn1c(Cc2c(F)cc(-c3cccc4c3OC(C)(c3ccc(C#N)cc3F)O4)cc2F)nc2ccc(C(=O)O)cc21` (single isomer, unassigned) [Example 99, 2-(4-(2-(4-cyano-2-fluorophenyl)-2-methylbenzo[d][1, 3]dioxol-4-yl)-2,6-difluorobenzyl)-1-(2-methoxyethyl)-1H-benzo[d]imidazole-6-carboxylic acid] are 2.4 nM and 11.3 mL/min/kg.
The like results for `CC1(c2ccc(Cl)cn2)Oc2cccc(-c3cc(F)c(Cc4nc5ccc(C(=O)O)cc5n4CC4(CF)CC4)c(F)c3)c2O1` (centres unmarked) [Example 12, 2-(4-(2-(5-chloropyridin-2-yl)-2-methylbenzo[d][1, 3]dioxol-4-yl)-2,6-difluorobenzyl)-1-((1-(fluoromethyl)cyclo-propyl)methyl)-1H-benzo[d]imidazole-6-carboxylic acid] were, in that order, 2.4 nM and 4 mL/min/kg.
For `COCCn1c(Cc2c(F)cc(-c3cccc4c3OC(CCC(=O)O)(c3ccc(Cl)cc3)N4)cc2F)nc2ccc(C(=O)O)cc21` (centres unmarked) [Example 10, 2-(4-(2-(2-carboxyethyl)-2-(4-chlorophenyl)-2,3-dihydrobenzo[d]oxazol-7-yl)-2,6-difluorobenzyl)-1-(2-methoxyethyl)-1H-benzo[d]imidazole-6-carboxylic acid], on GLP-1R, the EC50 worked out at 130 nM. Besides, in series [1], the “Predicted Hepatic Clearance (Pred. Cl.)” value is 12.7 mL/min/kg.
As for `CC1(c2ccc(Cl)cn2)Oc2cccc(-c3cc(F)c(Cc4nc5ccc(C(=O)O)cc5n4C[C@@H]4CCO4)c(F)c3)c2O1` (single isomer, unassigned) [Example 49], the EC50 at GLP-1R stood at 0.31 nM. For the same compound, in series [1], the “Predicted Hepatic Clearance (Pred. Cl.)” value was 3.33 mL/min/kg.
For `COCCn1c(Cc2ccc(-c3cccc4c3OC(C)(c3ccc(Cl)cc3F)O4)cc2F)nc2ccc(C(=O)O)cc21` (centres unmarked) [Example 80, 2-(4-(2-(4-chloro-2-fluorophenyl)-2-methylbenzo[d][1, 3]dioxol-4-yl)-2-fluorobenzyl)-1-(2-methoxyethyl)-1H-benzo[d]imidazole-6-carboxylic acid], the EC50 on GLP-1R was determined as 11 nM. For the same compound, the “Predicted Hepatic Clearance (Pred. Cl.)” value in series [1] is 4 mL/min/kg.
`CC1(c2ccc(C(F)(F)F)cc2)Oc2cccc(-c3cc(F)c(Cc4nc5ccc(C(=O)O)cc5n4C[C@@H]4CCO4)cc3F)c2O1` (stereo partly drawn) [Example 63, 2-(2,5-difluoro-4-(2-methyl-2-(4-(trifluoromethyl)phenyl)benzo[d][1, 3]dioxol-4-yl)benzyl)-1-(((S)-oxetan-2-yl)methyl)-1H-benzo[d]imidazole-6-carboxylic acid]: the EC50 at GLP-1R worked out at 0.62 nM. The “Predicted Hepatic Clearance (Pred. Cl.)” value in series [1] was 3.5 mL/min/kg.
For `CC1(c2ccc(Cl)cc2F)Oc2cccc(-c3cc(F)c(Cc4nc5c(F)cc(C(=O)O)cc5n4CC4(CC#N)CC4)c(F)c3)c2O1` (centres unmarked) [Example 13, 2-(4-(2-(4-chloro-2-fluorophenyl)-2-methylbenzo[d][1, 3]dioxol-4-yl)-2,6-difluorobenzyl)-1-((1-(cyanomethyl)cyclo-propyl)methyl)-4-fluoro-1H-benzo[d]imidazole-6-carboxylic acid], on GLP-1R, the EC50 is 0.41 nM. In series [1], the “Predicted Hepatic Clearance (Pred. Cl.)” value is <1.83 mL/min/kg.
On the same counts, the results for `CC1(c2ccc(Cl)cn2)Oc2cccc(-c3cc(F)c(Cc4nc5ccc(C(=O)O)cc5n4C[C@@H]4CCO4)cc3F)c2O1` (single isomer, unassigned) [Example 46] are 17 nM and 4.33 mL/min/kg.

Usually EC50 stands for the concentration that produces a half-maximal response.
